Measured values from patent US20230233500A1, “Gasdermin D (GSDMD) Succination for the Treatment of Inflammatory Disease” (University of Massachusetts, priority 2020, published 2023).
Structures can show the parent of a compound that is named as a salt.

What was measured:
CD14+ monocytes = assay: LPS-Nig induced cell death and LDH release in primary CD14+ monocytes; format: cell-based, human; settings: fumarate 25 μM
Description: FIGS. 6A-G. Fumarate inhibits pyroptosis in Human cells. (A-B) Representative images (A) and kinetic data (B) of SYTOX Orange and Hoechst-stained PMA-differentiated THP1 cells treated with LPS for 2 hours, DMSO (vehicle) or fumarate (25 μM) for 1 hour and nigericin (10 μM) for 6 hours. (C) LDH release from (A). (D-E) Kinetic cell death data of SYTOX Orange and Hoechst stained (D) or LDH assay of conditioned medium from primary CD14+ positive monocytes treated with LPS for 2 hours DMSO (vehicle) or fumarate (25 μM) for 1 hour and nigericin (10 μM) for 6 hours. (F) LC/MS quantification of fumarate in WT BMDMs treated with LPS for 2 hours, FHIN1 for 1 hour and nigericin for 1 hour. (G) Representative images of WT primary BMDMs stained with SYTOX Orange and Hoechst following treatment with LPS for 2 hours, DMSO (vehicle) or fumarate (25 μM) or FHIN1 (25 μM) for 1 hour and nigericin for a timecourse of 6 hours. A, B, D, G are representative of 3 independent experiments. C, E, F are pooled data from 3 independent experiments. ***, P<0.001, ****, P<0.00001 (Students t-test). Error bars show mean±SD (B, D) or SEM (C, E). Cells were plated, treated and incubated in phenol red free medium. Following treatment medium was collected and assessed for LDH release using the CytoTox96 non-radioactive cytotoxicity assay (Promega) as per manufacturer's instructions. […]

[1] = target: T1, caspase 1-GSDMD interactions (Mus musculus, UniProt Q9D8T2); assay: Caspase 1-GSDMD interaction and caspase 1 processing in BMDMs; format: cell-based
T1 construct: Immunoblots of casplp20 and GSDMD in BMDMs (I); endogenous in cells; host or cells: primary mouse BMDMs
T1 sequence (Q9D8T2 1-487): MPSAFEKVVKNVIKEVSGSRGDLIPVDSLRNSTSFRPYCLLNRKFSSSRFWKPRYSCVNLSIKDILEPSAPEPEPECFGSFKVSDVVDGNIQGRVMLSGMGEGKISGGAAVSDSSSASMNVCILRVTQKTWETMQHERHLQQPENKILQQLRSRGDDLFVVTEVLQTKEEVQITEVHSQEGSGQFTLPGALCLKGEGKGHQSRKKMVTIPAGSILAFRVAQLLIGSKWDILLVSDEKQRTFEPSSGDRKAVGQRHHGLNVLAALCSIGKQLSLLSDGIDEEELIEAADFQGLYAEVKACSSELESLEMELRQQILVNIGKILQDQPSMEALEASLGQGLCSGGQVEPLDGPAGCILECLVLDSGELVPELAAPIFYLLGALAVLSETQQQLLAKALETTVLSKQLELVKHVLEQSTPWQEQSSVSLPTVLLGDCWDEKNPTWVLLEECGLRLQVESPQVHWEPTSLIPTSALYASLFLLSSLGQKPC
From the text: FIGS. 2A-J. Succination of GSDMD inhibits pyroptosis. Immunoblot of GSDMD in streptavidin pulldown from clicked lysates treated as indicated (A-B). Representative MS spectra of 2-monomethyl and 2-dimethylsuccination of GSDMD immunoprecipitated from fumarate treated BMDMs (C-D). Immunoblot of GSDMD in clicked lysates from transfected HEK293T. Cell death of HEK293T transfected as indicated (F-H). Immunoblots of casplp20 and GSDMD in BMDMs (I). Immunoblots of an in vitro binding assay of succinated and non-succinated GSDMD incubated with caspase 1 beads (J). A, B, F, J, […] representative images from three independent experiments. C, D, E, representative mass spec spectra from two independent experiments. H, I pooled data from three independent experiments. ***, P<0.001 (One-way anova). Error bars show means±SEM.
Primary BMDMs from WT or GsdmD^−/− mice were cultured in 12-well plates (1×10^6 cells per ml; 1 ml) or 10 cm dishes (2×10^6 cells per ml; 10 ml). HEK293T cells (2.5×10^5 cells per ml; 3 ml) were cultured in 6-well plates and transfected with FLAG-tagged GSDMD constructs where indicated. For cell lysate analysis cells were lysed directly in 1× Lamelli sample buffer. […] Samples were resolved by SDS-PAGE and stained using simply blue safe stain or transferred to nitrocellulose membranes and analyzed by immunoblot. […]

## COC(=O)/C=C/C(=O)OC [Fumarate, Dimethyl fumarate]
CD14+ monocytes
  LPS-Nig induced LDH release: blocked
CD14+ monocytes; SYTOX Orange
  LPS-Nig induced cell death: blocked
[1]; casp1 p20 immunoblot
  processing of caspase 1: not impaired
[1]; immunoblots
  caspase 1-GSDMD interactions: completely blocked
